In US8314142B2, “Dimers of artemisinin derivatives, preparation thereof and therapeutic use thereof” (Sanofi, priority 2006, dated 2012):

Tested on: HCT116 cells
Assay: Inhibition of cell proliferation of HCT116 cells (14C-thymidine incorporation, 96 hours)
Assay type: cell-based
Details: Homo sapiens, HCT-116, 14C-thymidine incorporation after 96 hours
Procedure: The products according to the invention have been the subject of pharmacological trials which make it possible to determine their antiproliferative activity. It was determined by measuring the inhibition of cell proliferation of HCT116 cells. The cells are inoculated in a cell culture medium at a concentration of 10 000 cells per well, in 0.17 ml of medium, and 20 μl of test product, at various concentrations, and 10 μl of Thymidine [methyl-14C] (100 μCi/ml—specific activity 47.90 mCi/mmol; NEN Technologies reference NEC568 batch 3550-001) are added, and then the cells are incubated at 37° C. and 5% CO2.
Medium used for the culture of HCT116 cells: DMEM medium 2 mM L-glutamine, 200 IU/ml penicillin, 200 μg/ml streptomycin and 10% (V/V) fetal calf serum (Life Technologies).
After 96 hours, the incorporation of ^14C-thymidine is counted in a liquid scintillation counter 1450 Microbeta Wallac Trilux. The results R are expressed in cpm (counts per minute) and converted to percentage of growth inhibition GI % by first subtracting the mean of the number of cpm of the wells without cells B and then by dividing by the number of cpm of the wells of the untreated cells C comprising 20 μl of medium for dilution of the product containing 1% of ethanol (GI %=(R−B)×100/C %).
The IC50 values are calculated with the aid of the equation 205 of the XLFit software (IDBS company, UK) by nonlinear regression analysis using the Marquardt algorithm (Donald W. MARQUARDT, J. Soc. industry appl., vol. 11, No. 2, June, 1963).

IC50 [nM] | Compound
30 | C[C@@H]1CC[C@H]2[C@@H](C)[C@](OCCN(C)CCO[C@@]3(C(F)(F)F)O[C@@H]4O[C@@]5(C)CC[C@H]6[C@H](C)CC[C@@H]([C@H]3C)[C@@]46OO5)(C(F)(F)F)O[C@@H]3O[C@@]4(C)CC[C@@H]1[C@]32OO4 [EX8, 2-[[(3R,5aS,6R,8aS,9R,10R,12R,12aR)-decahydro-3,6,9-trimethyl-10-(trifluoromethyl)-3,12-epoxy-12H-pyrano[4,3-j]-1,2-benzodioxepin-10-yl]oxy]-N-[2-[[(3R,5aS,6R,8aS,9R,10R,12R,12aR)-decahydro-3,6,9-trimethyl-10-(trifluoromethyl)-3,12-epoxy-12H-pyrano[4,3-j]-1,2-benzodioxepin-10-yl]oxy]ethyl]-N-methylethanamine]
23 | C[C@@H]1CC[C@H]2[C@@H](C)[C@](OCC[S+]([O-])CCO[C@@]3(C(F)(F)F)O[C@@H]4O[C@]5(C)CC[C@H]6[C@H](C)CC[C@@H]([C@H]3C)[C@@]46OO5)(C(F)(F)F)O[C@@H]3O[C@@]4(C)CC[C@@H]1[C@]32OO4 [EX2]
47 | C[C@@H]1CC[C@H]2[C@@H](C)[C@](OCCSCCO[C@@]3(C(F)(F)F)O[C@@H]4O[C@]5(C)CC[C@H]6[C@H](C)CC[C@@H]([C@H]3C)[C@@]46OO5)(C(F)(F)F)O[C@@H]3O[C@@]4(C)CC[C@@H]1[C@]32OO4 [EX1]
21 | C[C@@H]1CC[C@H]2[C@@H](C)[C@](OCCS(=O)(=O)CCO[C@@]3(C(F)(F)F)O[C@@H]4O[C@]5(C)CC[C@H]6[C@H](C)CC[C@@H]([C@H]3C)[C@@]46OO5)(C(F)(F)F)O[C@@H]3O[C@@]4(C)CC[C@@H]1[C@]32OO4 [EX3, (3S,5aS,6R,8aS,9R,10R,12R,12aR,3′S,5′aS,6′R,8′aS,-9′R,10′R,12′R,12′aR)-10,10′-[sulfonylbis(2,1-ethanediyloxy)]bis[decahydro-3,6,9-trimethyl-10-tri-fluoromethyl)-3,12-epoxy-12H-pyrano[4,3-j]-1,2-benzodioxepine]
